Results from patent US20140221301A1, “COMBINATION TREATMENT FOR CANCER” (priority 2011, published 2014).

What was measured:
[1] = tested on: normal hematopoietic cells; experiment: Methylcellulose colony formation assay, normal hematopoietic cells; assay type: cell-based, human; conditions: 5 μM, normal hematopoietic cells n=5, 14 days
Method: FIG. 2. Tigecycline induces cell death and inhibits clonogenic growth in primary AML cells preferential over normal hematopoietic cells. Mononuclear cells from peripheral blood of leukemia patients (blast count>80%) and normal G-CSF expanded donors was treated with increasing concentrations of tigecycline for 48 hours. Cell viability was measured by Annexin-PI flow cytometry staining. Cell viability is expressed as a mean percentage plus or minus SD (n=3) relative to DMSO-treated cells. Mononuclear cells from primary AML patient samples (A, B) and normal peripheral blood cells (C) were plated in methylcelluose with 5 μM of Tigecycline. (D) Colony forming units were counted at 7 days (AML) and 14 days (Normal) post plating. […]
To assess clonogenic growth, primary AML cells (1.0×10^5/mL) or granulocyte colony-stimulating factor (G-CSF) mobilized PBSCs (1.0×10^5/mL) were plated in duplicate with increasing concentrations of tigecycline in MethoCult GF H4434 medium (StemCell Technologies, Vancouver, BC) containing 1% methycellulose in IMDM, 30% FCS, 1% bovine serum albumin, 3 U/mL of recombinant human erythropoietin, 10^−4 M of 2-mercaptoethanol, 2 mM of L-glutamine, 50 ng/mL of recombinant human stem cell factor, 10 ng/mL of GM-CSF, and 10 ng/mL of rh IL-3). Seven days (AML samples) or 14 days (normal PBCS) after plating, the number of colonies was counted as previously described^31.

[2] = tested on: primary AML patient samples; experiment: Cell viability by Annexin V staining, primary AML patient samples; assay type: cell-based, human
Method: (§1) Cell growth and viability was assessed by the MTS assay (Promega, Madison, Wis.) according to the manufacturer's instructions. Apoptosis and cell death was measured by Annexin V-fluroscein isothiocyanate (FITC; Biovision Research Products, Mountain View, Calif.), propidium iodide staining and flow cytometry according to the manufacturer's instructions and as previously described^30.

leukemia cell lines = experiment: Cell growth and viability, MTS assay, leukemia cell lines; assay type: cell-based; conditions: 72 hours, tested leukemia cell lines
Method: (§2) FIG. 1. […] (A) TEX and (B) M9-ENL1 cells were plated in 96-well plates and drugs were added to the wells (5 μL per well) for final concentrations of 10 μM (shown) and 1 μM. Cell growth and viability was measured at 48 hours (M9-ENL-1) and 72 hours (TEX) by MTS assay. Cell viability is shown for each compound as a percent of cells treated with DMSO alone. (C) Leukemia, (D) myeloma, and (E) solid tumor cell lines were seeded in 96-well plates and then treated with increasing concentrations of tigecycline. Cell growth and viability was measured at 72 hours by MTS assay. Cell viability is expressed as mean percentage plus or minus SD (n=3) relative to vehicle-treated cells. […] Cell viability was measured at 72 hours by MTS assay. Cell viability is expressed as mean percentage plus or minus SD (n=3) relative to vehicle-treated cells.
Human leukemia (OCI-AML2, HL60, U937) cell lines were maintained in RPMI 1640 medium. Myeloma (LP-1, KMS11, 8226, JJN3, OP-M2) cell lines were maintained in Iscove's media. […]
as §1

[3] = tested on: normal hematopoietic cells from G-CSF mobilized normal donors; experiment: Mitochondrial membrane potential, JC-1, normal hematopoietic cells; assay type: cell-based, human; conditions: normal cells from two G-CSF mobilized donors
Method: FIG. 4. Tigecycline decreases mitochondrial Cox-1 protein levels in TEX cells. (A) Cells from TEX, OCI-AML2 and two primary AML patients were treated with increasing concentrations (2.5 μM and 5 μM) of tigecycline for 36 and 48 hours of tigecycline. Total proteins were extracted and analyzed by western blotting for Cox-1, Cox-2, Cox-4, grp78, XIAP, actin and tubulin. (B) TEX and AML patient cells were treated with increasing concentrations (2.5 μM and 5 μM) of tigecycline. Cox-1, Cox-2, and Cox-4 mRNA expression relative 18S was determined by quantitative RT-PCR. Data is shown as mean±SD. […] Complex I, II and IV enzyme activity relative to citrate synthase activity was determined as described in materials and methods. […] Mitochondrial membrane potential (ΔΨ) was determined by staining cells with JC-1 dye, and flow cytometry analysis (Red/Green ratio). Reactive oxygen species generation (ROS) was determined by staining with h2-DCFDA and Dihydroethidium (DHE).
To measure mitochondrial membrane potential, cells were treated with tigecycline similarly as described above and then washed twice with PBS and incubated with 5 μM of 5,5′,6,6′-tetrachloro-1,1′,3,3′-tetraethyl benzimidazolylcarbocyanine iodide (JC-1, Sigma-Aldrich) for 20 minutes at 37° C. Each sample was then washed twice with 1 mL PBS and resuspended in 500 μL PBS prior to being read on a BD FACSCalibur. […]

TEX cells = experiment: Apoptosis by Annexin V flow cytometry in TEX cells; assay type: cell-based, human; conditions: over time
Method: as §2, §1

[4] = PK study in mice, single dose i.p.; conditions: mouse, in vivo, ip, single dose 50 mg/kg i.p.

SMILES: CN(C)c1cc(NC(=O)CNC(C)(C)C)c(O)c2c1C[C@H]1C[C@H]3[C@H](N(C)C)C(O)=C(C(N)=O)C(=O)[C@@]3(O)C(O)=C1C2=O [tigecycline]
- reduction of clonogenic growth [1]: 34±5%
- relation of induced cytotoxicity to mitochondrial mass ([2]; AML samples, 5 μM and 10 μM, 48 hours): correlates with increasing mitochondrial mass
- LD50 ([2]; more resistant group of patients, n=7, 48 hours): > 9 µM
- LD50 ([2]; sensitive subset of leukemia patients, n=13, 48 hours): 5 µM
- IC50 (leukemia cell lines): 5 to 8 µM
- loss of mitochondrial membrane potential [3]: not seen
- apoptosis, percentage of cells labeled by Annexin V (TEX cells): time-dependent increases in apoptosis
- Tmax [4]: ~0.5 h
- half-life [4]: ~4.5 h
